Measured values published in US20070185176A1, “Heparanase inhibitors and uses thereof” (Insight Bioharmaceuticals Ltd., priority 2004, published 2007).

Biological target: T1, human recombinant heparanase (h-hpa) (Homo sapiens, UniProt Q9Y251)
T1 sequence (Q9Y251 158-543 limits assumed): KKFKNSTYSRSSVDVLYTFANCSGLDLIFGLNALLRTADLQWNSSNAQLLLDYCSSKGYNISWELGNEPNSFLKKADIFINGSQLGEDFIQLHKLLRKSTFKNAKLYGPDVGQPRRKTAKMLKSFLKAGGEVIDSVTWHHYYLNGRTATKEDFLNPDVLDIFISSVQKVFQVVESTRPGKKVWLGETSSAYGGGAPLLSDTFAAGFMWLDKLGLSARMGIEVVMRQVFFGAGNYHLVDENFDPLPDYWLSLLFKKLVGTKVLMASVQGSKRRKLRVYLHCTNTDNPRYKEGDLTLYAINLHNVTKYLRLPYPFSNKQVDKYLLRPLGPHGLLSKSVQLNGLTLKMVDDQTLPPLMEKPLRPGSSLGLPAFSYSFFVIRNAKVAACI
T1 sequence (Q9Y251 36-109 limits assumed): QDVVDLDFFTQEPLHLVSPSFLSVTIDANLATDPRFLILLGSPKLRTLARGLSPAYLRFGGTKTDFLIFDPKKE
Assay: In vitro dimethylmethylene blue (DMB) assay for heparanase activity
Description: (a) In Vitro Dimethylmethylene Blue (DMB) Assay for Heparanase Activity
Heparin Sepharose CL-6B beads were added up to the top of the wells of a multiscreen column loader (Millipore). A 96-well multiscreen plate containing 0.65 μm hydrophilic, low protein binding, Durapore membrane (Millipore) was placed, upside down, on top of the multiscreen column loader. The column loader and the multiscreen plate were held together, turned over, and the beads were uniformly transferred from the column loader to the multiscreen plate (Millipore, MADVM 650). Double-distilled water (DDW) was then added to the beads, which were allowed to swell for one minute, and then washed (three times) with DDW under vacuum. Heparin concentration was estimated to be 10 μM/well.
To each well, phosphate-buffered saline (PBS) containing 1% bovine serum albumin (BSA; 70 μl/well) and DMB (32 mg of DMB were dissolved in 5 ml ethanol, diluted to 1 liter with formate buffer containing 4 g sodium formate and 4 ml formic acid; 120 μl/well) were added. Color was developed after 5 minutes, and the absorbance of the samples was determined using a microplate reader (Spectra Max, Molecular Devices) at 530 nm with 570 nm as reference. The absorbance correlated to heparanase activity. As a control, heparanase was added to the heparin Sepharose swollen beads in the multiscreen plate and the heparanase reaction products were filtered immediately thereafter and the absorbance of these control samples was subtracted from all other samples.
The cell extracts were centrifuged and resuspended in 20 mM phosphate citrate buffer, pH 5.4 containing 50 mM NaCl. The cells were lysed by three cycles of freezing and thawing. The cell lysates were centrifuged (10000×g for 5 min), supernatants were collected and then assayed for heparanase activity using the DMB assay.
The partially purified human recombinant heparanase or the crude cell extracts expressing either human or mouse recombinant heparanase were added for a 3-hour incubation and the reaction continued as described above. Absorbance of the developing color was measured as described above.

Row | IC50 | SMILES
1 | 220 nM | CCCCCCCCCCCCCCCCCC1=NN(c2ccc(Oc3ccccc3)c(S(=O)(=O)O)c2)C(=O)C1/N=N/c1ccccc1N(C)C (stereo not shown) [Compound 5]
2 | 250 nM | CCCCCCCCCCCCCCCCCC1=NN(c2ccc(Oc3ccccc3)c(S(=O)(=O)O)c2)C(=O)C1Br (stereo not shown) [Compound 6]
3 | 240 nM | CCCCCCCCCCCCCCCCCC1=NN(c2ccc(Oc3ccccc3)c(S(=O)(=O)O)c2)C(=O)C1/N=N/c1ccc(OC)cc1 (stereo not shown) [Compound 7]
4 | 210 nM | CCCCCCCCCCCCCCCCCC1=NN(c2ccc(Oc3ccccc3)c(S(=O)(=O)O)c2)C(=O)C1/N=N/c1cc(OC)ccc1OC (stereo not shown) [Compound 8]
5 | 180 nM | CCCCCCCCCCCCCCCCCC1=NN(c2ccc(Oc3ccccc3)c(S(=O)(=O)O)c2)C(=O)C1/N=N/c1cccc(C(=O)O)c1 (stereo not shown) [Compound 11]
6 | 870 nM | CCCCCCCCCCCCCCCCCCCCC1=NN(c2ccc(S(=O)(=O)O)cc2N)C(=O)C1 [Compound 14]
7 | 190 nM | CCCCCCCCCCCCCCCCCC(=O)NC1=NN(c2ccc(Oc3ccccc3)c(S(=O)(=O)O)c2)C(=O)C1/N=N/c1ccc(O)c(C(=O)O)c1 (stereo not shown) [Compound 20]
8 | 310 nM | CCCCCCCCCCCCCCCCCC1=NN(c2ccc(Oc3ccccc3)c(S(=O)(=O)O)c2)C(=O)C1/N=N/c1ccc(O)c(C(=O)O)c1 (stereo not shown) [Compound 21]
9 | 400 nM | CCCCCCCCCCCCCCCCCCOc1ccc(C(=O)CC(=O)Nc2ccc(Oc3cccc(C(=O)O)c3)c(C(=O)O)c2)cc1 [Compound 23]
10 | 270 nM | CCCCCCCCCCCCCCCCCC1=NN(c2ccc(Oc3ccccc3)c(S(=O)(=O)O)c2)C(=O)C1/N=N/c1ccc(S(=O)(=O)O)cc1 (stereo not shown) [Compound 25]
11 | 130 nM | CCCCCCCCCCCCCCCCCC1=NN(c2ccc(Oc3ccccc3)c(S(=O)(=O)O)c2)C(=O)C1/N=N/c1ccc(NC(C)=O)cc1 (stereo not shown) [Compound 26]
12 | 270 nM | CCCCCCCCCCCCCCCCCC(=O)Nc1ccc(C(=O)NC2=NN(c3ccc(Oc4ccccc4)c(S(=O)(=O)O)c3)C(=O)C2/N=N/c2ccc(NS(=O)(=O)c3ccc(C)cc3)cc2)cc1 (stereo not shown) [Compound 27]
13 | 210 nM | CCCCCCCCCCCCCCCCCCN(C)c1ccc(S(=O)(=O)O)cc1NC(=O)c1cc(/N=N/c2cccc(NS(=O)(=O)c3ccccc3)c2)c2ccccc2c1O [Compound 33]
14 | 310 nM | CCCCCCCCCCCCCCCCCCN(C)c1ccc(S(=O)(=O)O)cc1NC(=O)c1cc(/N=N/c2cc(-c3ccccc3)ccc2O)c2ccccc2c1O [Compound 34]
15 | 1340 nM | CCCCCCCCCCCCCCCCCC1=Nn2c(nc3cc(S(=O)(=O)O)ccc32)C1S(=O)(=O)O (stereo not shown) [Compound 35]
16 | 1420 nM | CCCCCCCCCCCCCCCCCC1=Nn2c(nc3cc(C(=O)O)ccc32)C1S(=O)(=O)O (stereo not shown) [Compound 36]
17 | 1500 nM | CCCCCCCCCCCCCCCCCC1=NN(c2ccc(-c3nc4cc(S(=O)(=O)O)ccc4s3)cc2)C(=O)/C1=N\c1ccc(N(CC)CC)cc1 [Compound 37]
18 | 1450 nM | CCCCCCCCCCCCCCCCCC1=NN(c2nc3ccc(S(=O)(=O)O)cc3[nH]2)C(=O)/C1=N\c1ccc(N(CC)CC)cc1 [Compound 38]
19 | 2800 nM | CCCCCCCCCCCCCCCCCC1=NN(c2nc3cc(C(=O)O)cc(C(=O)O)c3s2)C(=O)C1 [Compound 39]
20 | 230 nM | CCCCCCCCCCCCCCCCCC(=O)Nc1ccc(NC(=O)c2cc(/N=N/c3cc(C(=O)O)c(O)cc3O)c3ccccc3c2O)cc1S(=O)(=O)O [Compound 40]
21 | 490 nM | CCCCCCCCCCCCCCCCCCN(C)c1ccc(S(=O)(=O)O)cc1NC(=O)c1cc(S(=O)(=O)O)c2ccccc2c1O [Compound 41]

Row | IC50 | SMILES
22 | 480 nM | CCCCCCCCCCCCCCCCCCn1c(-c2ccc3ccccc3c2O)nc2cc(S(=O)(=O)O)ccc21 [Compound 42]
23 | 210 nM | CCCCCCCCCCCCCCCCCCOc1ccc(C(=O)CC(=O)Nc2ccc(Sc3ccccc3C(=O)O)c(C(=O)O)c2)cc1 [Compound 44]
24 | 500 nM | CCCCCCCCCCCCCCCCCCN(C)c1ccc(S(=O)(=O)O)cc1NC(=O)c1cc(/N=N/c2ccc(NS(=O)(=O)c3ccc(C)cc3)cc2)c2ccccc2c1O [Compound 45]
25 | 7700 nM | CCCCCCCCCCCCCCCCCCOc1ccc(C(=O)O)cc1NC(=O)c1cc(Sc2nnnn2-c2ccccc2)c2ccccc2c1O [Compound 46]
26 | 250 nM | CCCCCCCCCCCCCCCCCCN(C)c1ccc(S(=O)(=O)O)cc1NC(=O)c1cc(/N=N/c2cccc(NS(C)(=O)=O)c2)c2ccccc2c1O [Compound 47]
27 | 950 nM | CCCCCCCCCCCCCCCCCCOc1ccc(S(=O)(=O)N/N=C2\N(CC)c3ccccc3C2(C)C)cc1C(=O)O [Compound 48]
28 | 2700 nM | CCCCCCCCCCCCCCCCCCOc1ccc(S(=O)(=O)O)cc1NC(=O)c1cc(/N=N/c2ccccc2C(=O)O)c2ccccc2c1O [Compound 49]
29 | 4500 nM | CCCCCCCCCCCCCCCCCCN(C)c1ccc(C(=O)O)cc1NC(=O)c1cc(/N=N/c2cc(C(=O)O)ccc2O)c2ccccc2c1O [Compound 50]
30 | 3000 nM | CCCCCCCCCCCCCCCCCCC(=O)CC(=O)Nc1ccc(Oc2ccc(C(=O)O)cc2)c(C(=O)O)c1 [Compound 51]
31 | 740 nM | CCCCCCCCCCCCCCCCCCN(C)c1ccc(S(=O)(=O)O)cc1NC(=O)c1cc(/N=N/c2cc(NS(=O)(=O)c3ccc(C)cc3)ccc2Cl)c2ccccc2c1O [Compound 52]
32 | 400 nM | CCCCCCCCCCCCCCCCCCN(C)c1ccc(S(=O)(=O)O)cc1NC(=O)c1cc(/N=N/c2c(Cl)cccc2Cl)c2ccccc2c1O [Compound 53]
33 | 200 nM | CCCCCCCCCCCCCCCCS(=O)(=O)c1ccc(N2N=C(NC(=O)c3ccccc3S(=O)(=O)O)C(/N=N\c3ccc(O)cc3Cl)C2=O)cc1 (stereo not shown) [Compound 54]
34 | 430 nM | CCCCCCCCCCCCCCCCCCN(C)c1ccc(S(=O)(=O)O)cc1NC(=O)c1cc(/N=N/c2cc(OC)c(O)cc2Cl)c2ccccc2c1O [Compound 55]
35 | 6800 nM | C=CCCCCCCCCCCCCCCC(CC(=O)NC1=NN(c2c(Cl)cc(Cl)cc2Cl)C(=O)C1)C(=O)O (stereo not shown) [Compound 56]
36 | 7800 nM | CCCCCCCCCCCCCCCCn1c(/N=C/c2c(O)ccc3cc([N+](=O)[O-])ccc23)nc2ccccc21 [Compound 57]
37 | 3000 nM | CCCCCCCCCCCCCCCCn1c(/N=C/c2cc(Cl)cc(Br)c2O)nc2ccccc21 [Compound 58]
38 | 490 nM | CCCCCCCCCCCCCCCCCCOc1ccc(S(=O)(=O)Nc2cccc(S(=O)(=O)N/N=C3\N(C)c4ccccc4C3(C)C)c2)cc1C(=O)O [Compound 59]
39 | 440 nM | CCCCCCCCCCCCCCCCCC(=O)Nc1ccc(C(=O)CC(=O)Nc2cc(C(=O)O)ccc2Oc2cc(C(=O)O)cc(C(=O)O)c2)cc1 [Compound 60]
40 | 2000 nM | CCCCCCCCCCCCCCCCCC(=O)Nc1cc(C(=O)O)ccc1Oc1cc(C(=O)O)cc(C(=O)O)c1 [Compound 61]
41 | 11600 nM | CCCCCCCCCCCCCCCCCCN(C)c1ccc(C(=O)O)cc1NC(=O)c1cc(/N=N/c2cc(C(=O)OC)ccc2O)c2ccccc2c1O [Compound 62]
42 | 16800 nM | CCCCCCCCCCCCCCCCCCNc1ccc(C(=O)O)cc1NC(=O)c1cc(/N=N/c2ccc(NS(=O)(=O)c3ccc(C)cc3)cc2C)c2ccccc2c1O [Compound 63]

Row | IC50 | SMILES
43 | 290 nM | CCCCCCCCCCCCCCCCCCOc1ccccc1C(=O)CC(=O)Nc1cc(NS(=O)(=O)c2cc(C(=O)O)cc(C(=O)O)c2)ccc1Cl [Compound 64]
44 | 4800 nM | CCCCCCCCCCCCCCCCn1c(=N)n(CC(O)c2ccc(OC)c(OC)c2)c2ccccc21 (stereo not shown) [Compound 65]
45 | 1000 nM | CCCCCCCCCCCCCCCCCCN1/C(=C/C=C/c2oc3ccccc3[n+]2CCCCCCCCCCCCCCCCCC)Oc2ccccc21 [Compound 66]
46 | 1500 nM | CCCCCCCCCCCCCCCCCCN1/C(=C/C=C/c2sc3ccccc3[n+]2CCCCCCCCCCCCCCCCCC)Sc2ccccc21 [Compound 67]
47 | 6800 nM | CCCCCCCCCCNCC(O)Cn1c2ccc(Cl)cc2c2cc(Cl)ccc21 (stereo not shown) [Compound 68]
48 | 180 nM | CCCCCCCCCCCCCCCCCC(=O)NC1=NN(c2ccc(Oc3ccccc3)c(S(=O)(=O)O)c2)C(=O)C1/N=N/c1ccc(O)cc1Cl (stereo not shown) [Compound 69]
49 | 7000 nM | CCCCCCCCCCCCCCCCCCNC(=O)Nc1ccc(S(=O)(=O)O)cc1 [Compound 70]
50 | 2650 nM | CCCCCCCCCCCC(=O)NC1=NN(c2ccc(Oc3ccccc3)c(S(=O)(=O)O)c2)C(=O)C1 [Compound 71]
51 | 320 nM | CCCCCCCCCCCCCCCCCCNC(=O)c1cc(S(=O)(=O)O)c2ccccc2c1O [Compound 72]
52 | 1400 nM | CCCCCCCCCCCCCCCCCCn1c(C)nc2cc(S(=O)(=O)O)ccc21 [Compound 73]
53 | 19000 nM | CCCCCCCCCCCCCCCC(=O)NC(CN1CCOCC1)C(O)c1ccccc1 (stereo not shown) [Compound 74]
54 | 1600 nM | CCCCCCCCCCCCCCCC1=CN(c2ccc(S(=O)(=O)O)cc2)C(=O)C1 [Compound 75]
55 | 3000 nM | CCCCCCCCCCCCCCCCOc1ccc(/C(=N\NS(=O)(=O)c2cc(C(=O)O)cc(C(=O)O)c2)N2CCCCC2)cc1OC [Compound 76]
56 | 340 nM | CCCCCCCCCCCCCCCCCCN(C)c1ccc(S(=O)(=O)O)cc1NC(=O)c1cc(O)c2ccccc2c1 [Compound 77]
57 | 9000 nM | CCCCCCCCCCCCCCCC(=O)OC[C@H](O)C1OC(=O)C(O)=C1O (stereo partly shown) [Compound 78]
58 | 1600 nM | CCCCCCCCCCCCCCCCCC[n+]1c2cc(N(C)C)ccc2cc2ccc(N(C)C)cc21 [Compound 79]
59 | 17000 nM | CCCCCCCCCCCCCCCC[n+]1ccc(C=NO)cc1 [Compound 80]
60 | 18000 nM | O=C(O)CCCCCCCCCCN1C(=O)/C(=C/c2cccc(Br)c2)SC1=S [Compound 81]
61 | 17000 nM | CCN1C(=O)/C(=C2\SC(=S)N(CCCCCCCCCCC(=O)O)C2=O)c2ccccc21 [Compound 82]
